Laboratory results reported in patent US20240245694A1, “Tricyclic Compounds and their Uses” (Novartis AG, priority 2022, published 2024).

Columns and labels:
SW48 cells = test: Proliferation assay SW48 (CellTiterGlo, 96 hours); assay type: cell-based; settings: Homo sapiens
In short: (§1)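 Cells in RPMI-1640/10% FCS were seeded overnight (SW48 2'000, DLD1-WRN-KO 1'500 cells/well), then exposed to eight 3-fold compound dilutions at 0.1% DMSO. ATP luminescence relative to a day-0 plate gives % growth (0% stasis, −100% complete kill). GI50 is the geometric mean of ≥2 independent replicates.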

[1] = biological target: WRN helicase (core helicase motif aa N517-P1238) (Homo sapiens (Human), UniProt Q14191); test: WRN ATPase assay (ADP-Glo), DNA dependent ATP hydrolysis; assay type: biochemical; settings: 3 hours pre-incubation, 300 micromolar ATP, FLAP26 ssDNA; geometric means of at least 2 determinations
In short: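 Uses the WRN core helicase (aa N517-P1238) with single-strand 45-mer FLAP26 DNA in Tris pH 7.5, MgCl2, NaCl, BSA and pluronic buffer. Compound was pre-incubated 3 h with enzyme and ATP; reaction then run with 10 nM WRN, 0.2 nM FLAP26 and 300 µM ATP for 30 min at room temperature. ADP quantified by ADP-Glo luminescence; IC50 from duplicate 4-parameter fits, geometric mean of ≥2 runs.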

DLD1-WRN-KO cells = test: Proliferation assay DLD1-WRN-KO (CellTiterGlo, 96 hours), off-target effects; assay type: cell-based; settings: Homo sapiens
In short: as §1

Chain of WRN helicase (core helicase motif aa N517-P1238) (Q14191 517-1238): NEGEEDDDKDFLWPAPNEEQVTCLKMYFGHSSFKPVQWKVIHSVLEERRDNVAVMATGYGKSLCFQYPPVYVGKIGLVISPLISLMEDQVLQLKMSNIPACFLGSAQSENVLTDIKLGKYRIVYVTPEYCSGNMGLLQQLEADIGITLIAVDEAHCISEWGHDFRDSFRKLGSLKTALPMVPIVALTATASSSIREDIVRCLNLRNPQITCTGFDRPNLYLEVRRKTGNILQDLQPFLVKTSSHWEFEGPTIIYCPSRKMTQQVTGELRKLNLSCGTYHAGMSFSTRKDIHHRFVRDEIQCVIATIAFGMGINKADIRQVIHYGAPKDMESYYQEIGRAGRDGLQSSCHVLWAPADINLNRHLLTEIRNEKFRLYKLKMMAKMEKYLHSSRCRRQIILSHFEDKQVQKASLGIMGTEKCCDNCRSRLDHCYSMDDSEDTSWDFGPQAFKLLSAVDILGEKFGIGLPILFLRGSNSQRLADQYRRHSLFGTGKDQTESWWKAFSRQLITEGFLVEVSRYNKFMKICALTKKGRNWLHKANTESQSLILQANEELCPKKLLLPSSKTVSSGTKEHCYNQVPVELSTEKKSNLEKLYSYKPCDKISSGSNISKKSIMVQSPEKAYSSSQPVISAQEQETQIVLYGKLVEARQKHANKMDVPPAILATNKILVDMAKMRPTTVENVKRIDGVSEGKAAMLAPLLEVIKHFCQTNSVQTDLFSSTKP

GI50 (SW48 cells) [nM] | IC50 [1] [µM] | GI50 (DLD1-WRN-KO cells) [µM] | SMILES
200 | 0.05 | > 10 | O=C(Nc1ccc(C(F)(F)F)cc1)[C@H]1CCc2c(N3CCN(C(=O)c4ncccc4O)CC3)c(=O)n3nc(C4=CCOCC4)nc3n21 [Example 23A, (R)-2-(3,6-dihydro-2H-pyran-4-yl)-6-(4-(3-hydroxypicolinoyl)piperazin-1-yl)-5-oxo-N-(4-(trifluoromethyl)phenyl)-5,7,8,9-tetrahydropyrrolo[1,2-c][1,2,4]triazolo[1,5-a]pyrimidine-9-carboxamide]
> 10000 | 69 | > 10 | O=C(Nc1ccc(C(F)(F)F)cc1)[C@@H]1CCc2c(N3CCN(C(=O)c4ncccc4O)CC3)c(=O)n3nc(C4=CCOCC4)nc3n21 [Example 23B, (S)-2-(3,6-dihydro-2H-pyran-4-yl)-6-(4-(3-hydroxypicolinoyl)piperazin-1-yl)-5-oxo-N-(4-(trifluoromethyl)phenyl)-5,7,8,9-tetrahydropyrrolo[1,2-c][1,2,4]triazolo[1,5-a]pyrimidine-9-carboxamide]
